The test system of data set [1] is mice with traumatic brain injury. Put plainly: Morris water maze neurocognitive performance after traumatic brain injury. Format: in vivo, mouse. To be noted: 0.05 mg/kg or 0.2 mg/kg iv at 2 h and 6 h after traumatic brain injury; days 28-31 post-injury; FIG. 4. On the procedure:
An experimental murine model for traumatic brain injury was developed. Laskowitz, et al. (2010) J. Neurotrauma, 27:1983-95. Male mice (age 12-14 weeks) were anesthetized with 4.3% isoflurane in oxygen in an anesthesia induction box for 90 seconds. The trachea was intubated and the lungs mechanically ventilated with 1.4% isoflurane in a 50/50 mixture of oxygen and nitrogen. Body temperature was maintained at 37° C. using surface heating/cooling. The top of the skull was exposed by a midline incision to identify anatomical landmarks, and a concave 3-mm metallic disc was secured to the skull surface with an adhesive, directly midline and just caudal to the bregma. […]
Another experimental procedure for measuring neurological deficits was developed using a Morris water maze. […] Latency to finding the platform and swimming speed were recorded using a computerized video tracking system (Ethovision 2.2.14; available from Noldus Information Technology, Leesburg VA).
Groups of mice received either an ApoE mimetic peptide (SEQ ID NO:4; 0.05 mg/kg) or carrier (saline) by intravenous tail vein injection at 2 hours and again at 6 hours after traumatic brain injury induced as described in Example 3. Each mouse was tested for vestibulomotor function by rotorod latency measured before and after injury, as described in Example 3. […]

The nature of data set [2]: Mouse brain PK of VSRRR (CNS penetration) by LC/MS. Format: in vivo. To be noted: for Brain Pilot, Ratio to Heavy / Brain Pilot, fmol/mg (tissue) / Brain Pilot, pg/mg (tissue): individual mouse brains, single-point internal standard quantitation; for Single-Dosed Brain PK, fmol analyte/mg tissue / Single-Dosed Brain PK, pg/mg of tissue: single dose 0.8 mg/kg, average of 5 animals. On the procedure: Mouse Brain PK on Therapeutic Peptide, VSRRR—Sample Preparation Procedure
Mice brains were weighed in a 1.5 mL Eppendorf tube. The entire brain was transferred to a 14 mL culture tube. 1 mL of 8 M urea in 50 mM ammonium formate (pH 10) with 2.5 pmol/mL SIL peptide per 100 mg wet tissue weight was added. For standard controls and QCs, 10 μL of peptide standard per every 100 mg of brain tissue (1%) was added with 990 μL of the aforementioned buffer to bring to a 1 mL total volume for every 100 mg of tissue. A tissue tearor was used on each sample for about 20 sec. 1.5 mL of the sample was transferred to a 2-mL Eppendorf tube. Each sample was probe sonicated for 3 bursts of 5 sec per burst. The sample was then heated at 37° C. for 30 min. The sample was centrifuged for 30 min at 15,000 rpm. Very little precipitate was visible at the bottom of each tube and avoided when pipetting 1 mL of the sample (out of 1.5 mL total volume) and placing directly onto an OASIS® plate. Salts and proteins were removed using the OASIS® HLB Solid Phase Extraction (SPE) protocol described above for the plasma sample. After the extraction, the samples were dried down in a Speed Vac and reconstitute in 25 μL of 1% ACN/0.1% TFA/0.02% HFBA. 3 μL of the sample was injected into a SYNAPT™ G2 HDMS™ (Waters Corp.) using Full Scan MS method, with a run time of 16.5 min total. Peptide(s) of interest were monitored between 3-8 min.
Table 5 and FIG. 10 show the average amount of peptide in the CNS sample from 5 animals over time after a single dosing of 0.8 mg/kg of the peptide.
The analyte concentrations were calculated from a single-point internal standard quantitation. […] The analyte concentrations were calculated from a 7-point standard curve calibration curve equation generated with samples between 1.4 pg analyte/mg tissue and 89.2 pg/mg (2× serial dilutions). The inter-animal reproducibility for the brain analyses is high ([…] 21% CV). The drug molecule in the single-dosed brain Cmax is about 9 pg analyte/mg tissue.

Where “and” joins values, the source holds several entries; their conditions need not be identical. Identical values can stand only once.

On to Ac-VSRRR-NH2 [VR-55, Ac-VSRRR-NH2], for which the “neurocognitive outcomes (Morris water maze latency)” value in data set [1] is given as “improved neurocognitive outcomes”. The “Brain Pilot, Ratio to Heavy” value is 0.245 and 0.371 in data set [2] (3 min); 0.157 and 0.435 in data set [2] (10 min). The “Brain Pilot, fmol/mg (tissue)” value in data set [2] (3 min) is 15 fmol/mg (tissue) and 23 fmol/mg (tissue); in data set [2] (10 min), 10 fmol/mg (tissue) and 27 fmol/mg (tissue). Moreover, the “Brain Pilot, pg/mg (tissue)” value in data set [2] (3 min) is 11 pg/mg (tissue) and 17 pg/mg (tissue); in data set [2] (10 min), 7 pg/mg (tissue) and 19 pg/mg (tissue). Moreover, the “single-dosed brain Cmax” value in data set [2] (mouse brain, single dose) was “about 9 pg analyte/mg tissue”. The “Single-Dosed Brain PK, fmol analyte/mg tissue” value in data set [2] (mouse brain, 1 min) is 10.91 fmol analyte/mg tissue; in data set [2] (mouse brain, 3 min) it was 12.30 fmol analyte/mg tissue; in data set [2] (mouse brain, 5 min) it was 11.26 fmol analyte/mg tissue; in data set [2] (mouse brain, 10 min) it was 11.83 fmol analyte/mg tissue; in data set [2] (mouse brain, 15 min) it was 10.56 fmol analyte/mg tissue; in data set [2] (mouse brain, 30 min) it was 8.87 fmol analyte/mg tissue. For the same substance, the “Single-Dosed Brain PK, fmol analyte/mg tissue” value in data set [2] (mouse brain, 60 min) was determined as 7.64 fmol analyte/mg tissue. Besides, the “Single-Dosed Brain PK, pg/mg of tissue” value in data set [2] (mouse brain, 1 min) is on record as 7.79 pg/mg of tissue; in data set [2] (mouse brain, 3 min), 8.79 pg/mg of tissue; in data set [2] (mouse brain, 5 min), 8.04 pg/mg of tissue; in data set [2] (mouse brain, 10 min), 8.44 pg/mg of tissue; in data set [2] (mouse brain, 15 min), 7.54 pg/mg of tissue; in data set [2] (mouse brain, 30 min), 6.33 pg/mg of tissue. In addition, in data set [2] (mouse brain, 60 min), the “Single-Dosed Brain PK, pg/mg of tissue” value is given as 5.46 pg/mg of tissue. The CNS penetration result in data set [2] (preliminary data, brain pilot) was “CNS penetration”.
